According to US20140234351A1, “CANCER VACCINES AND VACCINATION METHODS” (ImmunoCellular Therapeutics, Ltd., priority 2013, published 2014):
Read-outs that look alike come from different tables or passages of the source. Where no end group is shown, it is not given here.

What was measured:
[1] = Immunogenicity in vitro of A2 peptide epitopes (Table 1); format: cell-based; settings: Table 1, no method given
[2] = target: HLA-A*0201 molecules on T2 cells (Homo sapiens, UniProt P04439, D140Y/D185E/D98H/E176V/E277Q/G131W/G231S/I119V/I121R/I166T/I218V/L300P/L318F/N151K/N90K/P208A/P217A/Q86G/Q94H/R138H/R169H/T345S); test: T2 cell binding assay of HLA-A2 peptides; settings: peptide 75 μg/ml; for binding with T2 cells (affinity in words): conclusion of Example 11; for affinity to HLA-A*0201 molecules (up-regulation of HLA-A*0201 molecules): FIG. 5A
[3] = tested on: human ovarian cancer stem cells 1031CSC; test: Killing assay of peptide-specific CTLs (DDAO-SE and cleaved caspase-3 method); settings: target:effector 1:10, overnight, cleaved caspase-3, FIG. 6B
Experimental: (§1) Human monocyte-derived DCs were generated using previously described methods. […] The DCs were washed and plated in 6-well plates at a concentration of 5×10^6 cells/well IFN-γ (1000 unit/ml), and then monophosphoryl lipid A (MPLA, 20-50 μg/ml) (Cat# L6895, Sigma, St. Louis) was added into the wells to mature the DC for 24 hr or 48 hrs.
(§2) In order to evaluate antigen-specific immune responses, CD8 T cells were isolated from fresh or frozen apheresis by positive selection using Dynabeads® CD8 Positive Isolation Kit (Life Technologies, Grand Island, N.Y.) and co-cultured with autologous mDC for four weeks. DCs were added weekly. Briefly, mDCs were pulsed with synthetic peptides (10 μg/μl) for 6-8 hours at 37° C., and then treated with 20 ug/ml Mitomycin C (Sigma-Aldrich, St. Louis, Mo.) for 25 min at 37° C. and 5% CO2. The mDCs (5×10^4 cells/well) were co-cultured with autologous CD8^+ T cells (5×10^5 cells/well) in a 96-well plate at 37° C., 5% CO2 in a final volume of 200 μl CTL medium (IMDM with 0.24 mM Asparagine, 0.55 mM L-Arginine, 1.5 mM L-Glutamine and 10% heat inactivated human AB serum). Half of the medium was replaced every other day by fresh culture medium containing 40 IU/ml IL-2 and 20 ng/ml IL-7, the 3rd and 4th week 40 U/ml of IL-2 was replaced with 25 ng/ml IL-15. In the culture medium, peptides could also be added to the culture well at a final concentration of 1-2 μg/ml.
(§3) DDAO-SE labeled target cells were mixed with effector cells at a 1:10 ratio in round-bottom 96 well plate and incubated overnight at 37° C., 5% CO2. The cells were washed, fixed, and permeabilized with Fix/Perm solution (BD Biosciences) and then stained for 30 minutes at 4° C. with 10 μl PE-labeled anti-cleaved caspase-3 monoclonal antibody, followed by Cyan flow cytometric analysis (Beckman Coulter, Inc).

[4] = tested on: human ovarian cancer stem cells 882CSC; test: as above; settings: target:effector 1:10, overnight, cleaved caspase-3, FIG. 6A
Experimental: as §1, §2, §3

[5] = tested on: human ovarian cancer stem cells 1031CSC
Experimental: as §1, §2, §3

[6] = tested on: human ovarian cancer stem cells 882CSC
Experimental: as §1, §2, §3

Compound: EIWTHSYKV (listed as Homo sapiens) [FOLR1p191]
- Immunogenicity in vitro [1]: Yes
- binding with T2 cells (affinity in words) [2]: lower binding capacity
- affinity to HLA-A*0201 molecules (up-regulation of HLA-A*0201 molecules) ([2]; overnight): low affinity
- MFI index (relative binding affinity fluorescence index) ([2]; overnight, FIG. 5B): less than 1

Compound: TLADFDPRV [EphA2p883]
- cytotoxicity of peptide-specific CTLs against 1031CSC [3]: efficiently recognize and lyse
- cytotoxicity of peptide-specific CTLs against 882CSC [4]: efficiently recognize and lyse

Compound: VLPLTVAEV (listed as Homo sapiens) [mesothelinp531]
- Immunogenicity in vitro [1]: Yes
- binding with T2 cells (affinity in words) [2]: high affinity binding
- affinity to HLA-A*0201 molecules (up-regulation of HLA-A*0201 molecules) ([2]; overnight): high affinities

Compound: KVLEYVIKV (listed as Homo sapiens) [MAGEA1p278]
- Immunogenicity in vitro [1]: Yes
- binding with T2 cells (affinity in words) [2]: high affinity binding

Compound: WLPFGFILI [IL-13Rα2p345]
- cytotoxicity of peptide-specific CTLs against 1031CSC [3]: efficiently recognize and lyse
- cytotoxicity of peptide-specific CTLs against 882CSC [4]: efficiently recognize and lyse

Compound: CSCC[C@H](NC(=O)[C@@H](N)C(C)C)C(=O)N[C@@H](C)C(=O)NCC(=O)N[C@H](C(=O)NCC(=O)N[C@@H](CO)C(=O)N1CCC[C@H]1C(=O)N[C@@H](Cc1ccc(O)cc1)C(=O)N[C@H](C(=O)O)C(C)C)C(C)C [HER2p773]
- cytotoxicity of peptide-specific CTLs against 1031CSC [5]: efficiently recognize and lyse
- cytotoxicity of peptide-specific CTLs against 882CSC [6]: efficiently recognize and lyse

Compound: SLLFLLFSL (listed as Homo sapiens)
- Immunogenicity in vitro [1]: Yes

Compound: SLLMWITQC [NY-ESO-1p157]
- Immunogenicity in vitro [1]: Yes
